Measured values reported in patent US20250367302A1, “SMALL MOLECULE DRUG-OLIGONUCLEOTIDE CONJUGATE AND USE THEREOF” (SHANGHAI JIAO TONG UNIVERSITY, priority 2022, published 2025).
In the oligonucleotide strings, read from the 5' end, every base follows the letter of its sugar. An asterisk marks phosphorothioate; unmarked linkages are phosphodiester. Other units and linkages are bracketed, terminal groups are in braces. A string of capitals states the bases alone. d = 2'-deoxy (DNA); r = 2'-OH (RNA)

How the values were obtained:
NFKBIZ mRNA = NFKBIZ mRNA expression by RT-qPCR in LPS-stimulated HCECs; format: cell-based, human; settings: LPS-stimulated (100 ng/mL) HCECs, 10 μM ASO or siRNA, without transfection reagent, 6 h + 48 h
Protocol: HCECs were inoculated in a 6-well plate at a density of 1×10^5 cells/well and cultured until adherence. The cells were then stimulated with 100 ng/mL lipopolysaccharide (LPS) overnight. After removing the supernatant, 1 mL of Opti-MEM medium containing ASONFKBIZ-h, ASONFKBIZ-h+Lipofectamine2000 (Lipo2000), and CsA-ASONFKBIZ-h (all containing 10 µM ASO) were added, respectively. Cells without any treatment were used as a blank reference (Mock). After incubation at 37° C. for 6 h, the cells were transferred into DMEM medium and incubated for another 48 h. The cells were collected and RNA was extracted for RT-qPCR to analyze the expression level of the NFKBIZ mRNA in HCECs, and experimental results were shown in FIG. 9. The expression level of NFKBIZ mRNA in HCECs after LPS stimulation was about 1.3 times that of normal cells. […] After adding CsA-ASONFKBIZ-h for co-incubation, the expression of NFKBIZ mRNA was reduced to about 0.8 times that of normal cells.
(§1) HCECs were inoculated in a 6-well plate at a density of 1×10^5 cells/well and cultured until adherence. The cells were then stimulated with 100 ng/mL LPS overnight. After removing the supernatant, 1 mL of Opti-MEM medium containing ASONFKBIZ-h+Lipo2000 complex and 2CsA-ASONFKBIZ-h nanomicelles (all containing 10 µM ASO) were added, respectively. After incubation at 37° C. for 6 h, the cells were transferred into DMEM medium and incubated for another 48 h. The cells were collected and RNA was extracted for RT-qPCR to analyze the expression level of the NFKBIZ mRNA in HCECs, and experimental results were shown in FIG. 12.
as §1, with “ng/ml” for “ng/mL”, “3CsA-ASONFKBIZ-h” for “2CsA-ASONFKBIZ-h”, “15.” for “12.”
HCECs were inoculated in a 6-well plate at a density of 1×10^5 cells/well and cultured until adherence. The cells were then stimulated with 100 ng/mL LPS overnight. 1 mL of Opti-MEM medium containing ASONFKBIZ-h+Lipo2000 complex and CsA3-ASONFKBIZ-h nanomicelles (all containing 10 µM ASO) were added, respectively. After incubation at […]. 37° C. for 6 h, the cells were transferred into DMEM medium and incubated for another 48 h. After collected and RNA was extracted for RT-qPCR to evaluate the expression level of NFKBIZ mRNA in HCECs, and the experimental results were shown in FIG. 23.
HCECs were inoculated in a 6-well plate at a density of 1×10^5 cells/well and cultured overnight until adherence. The cells were then stimulated with 100 ng/ml LPS for 12 h. After removing the supernatant, 1 mL of Opti-MEM medium containing siRNANFKBIZ-h+Lipo2000 complex and nCsA-siRNANFKBIZ-h (n=1, 2, 3) conjugates and nanomicelles (all containing 10 μM siRNA) were added, respectively. After incubation at 37° C. for 6 h, the cells were transferred into DMEM medium and incubated for another 48 h. The cells were collected and RNA was extracted for RT-qPCR to evaluate the expression of NFKBIZ mRNA in HCECs, and experimental results were shown in FIG. 27. […]

[1] = test system: mice with xerophthalmia (0.2% benzalkonium chloride); assay: Benzalkonium chloride xerophthalmia mouse model: sodium fluorescein staining and phenol red cotton thread tear test; format: in vivo, mouse (C57BL/6); settings: for phenol red cotton thread infiltration length (tear secretion) after 14 d of treatment / sodium fluorescein staining eye score after 14 d of treatment: eye drops 5 μL per eye twice daily, 400 μM CsA (10RAP: 400 μM rapamycin), day 14; for phenol red cotton thread infiltration length (tear secretion), day 0 (before treatment) / sodium fluorescein staining eye score, day 0 (before treatment): xerophthalmia mice, baseline of the treatment group
Protocol: The ocular xerophthalmia model was established in 6-8 weeks old mice (C57BL/6, Suzhou Xishan Biotechnology Co., Ltd.) with 0.2% benzalkonium chloride. 5 μL of 0.2% benzalkonium chloride was dripped into each eye of the mice, once in the morning and once in the evening every day, for two consecutive weeks. After successful modeling, the hospital-prepared CsA eye drops (400 µM CsA, referred to as hospital-prepared CsA eye drops or CsA eye drops, provided by the Eye, Ear, Nose and Throat Hospital Affiliated to Fudan University School of Medicine, Shanghai) and CsA-ASONFKBIZ-m (400 µM CsA) were used for eye drops treatment, 5 μL per eye, once in the morning and once in the evening. Sodium fluorescein staining and phenol red cotton thread tear secretion test were conducted on days 0, 7, and 14 of treatment to evaluate the therapeutic effect.
(§2) The ocular xerophthalmia model was established in 6-8 weeks old mice (C57BL/6, Suzhou Xishan Biotechnology Co., Ltd.) with 0.2% benzalkonium chloride. 5 μL of 0.2% benzalkonium chloride was dripped into each eye of the mice, once in the morning and once in the evening every day, for two consecutive weeks. After successful modeling, the hospital-prepared CsA eye drops (400 μM CsA, provided by the Eye, Ear, Nose and Throat Hospital Affiliated to Fudan University School of Medicine, Shanghai) and 2CsA-ASONFKBIZ-m (400 µM CsA) were used for eye drops treatment, 5 μL per eye, once in the morning and once in the evening. Sodium fluorescein staining and phenol red cotton thread tear secretion test were conducted on days 0, 7, and 14 of treatment to evaluate the therapeutic effect.
as §2, with “µM” for “μM”, “provided” for “provided by”, “3CsA-ASONFKBIZ-m nanomicelles (133 µM ASO concentration, 400” for “2CsA-ASONFKBIZ-m (400”
as §2, with “CsA3-ASONFKBIZ-m nanomicelles” for “2CsA-ASONFKBIZ-m”, “0” for “0, 7,”
The ocular xerophthalmia model was established in 6-8 weeks old mice (C57BL/6, Suzhou Xishan Biotechnology Co., Ltd.) using 0.2% benzalkonium chloride. 5 μL of 0.2% benzalkonium chloride was dripped into each eye of the mouse, once in the morning and once in the evening every day for two weeks. After successful modeling, the hospital-prepared CsA eye drops (400 µM CsA, provided by the Eye, Ear, Nose and Throat Hospital Affiliated to Fudan University School of Medicine, Shanghai) and CsA-siRNANFKBIZ-m (400 µM CsA), 2CsA-siRNANFKBIZ-m nanomicelles (400 µM CsA), 3CsA-siRNANFKBIZ-m nanomicelles (400 µM CsA) were used for eye drops treatment, 5 μL per eye, once in the morning and once in the evening. […]

Substance	expression of NFKBIZ mRNA relative to normal cells (NFKBIZ mRNA)	phenol red cotton thread infiltration length (tear secretion) after 14 d of treatment [1]	sodium fluorescein staining eye score after 14 d of treatment [1]	phenol red cotton thread infiltration length (tear secretion), day 0 (before treatment) [1] [mm]	sodium fluorescein staining eye score, day 0 (before treatment) [1] [points]
2CsA-ASONFKBIZ-h: two CsA molecules coupled to 2DBCO ASO targeting human NFKBIZ (SEQ ID 3), self-assembled (ATCAGACAACGAATCGGGCNTT; two CsA via DBCO click; modified_base 20 OTHER; n is t base modified with DBCO moiety)	about 0.8 times that of normal cells				
2CsA-ASONFKBIZ-m: two CsA molecules coupled to 2DBCO ASO targeting mouse NFKBIZ (SEQ ID 4), self-assembled (AATACTGGTACATTGACGCCNTT; two CsA via DBCO click; modified_base 21 OTHER; n is t base modified with DBCO moiety)		about 3.5 mm	about 3.5 points	1.5	6
2CsA-siRNANFKBIZ-m: two CsA coupled to sense strand of siRNA targeting mouse NFKBIZ (SEQ ID NO: 17/18) (sense GCGUCAAUGUACCAGUAUUUUNUU; antisense AAUACUGGUACAUUGACGCCU; two CsA on sense strand; modified_base 22 OTHER; n is t base modified with DBCO moiety)		about 2.5 mm	about 2 points	1.5	6
3CsA-ASONFKBIZ-m: three CsA molecules coupled to 3DBCO ASO targeting mouse NFKBIZ (SEQ ID 6), self-assembled (AATACTGGTACATTGACGCCNTNTT; three CsA via DBCO click; modified_base 21 OTHER; n is t base modified with DBCO moiety; modified_base 23 OTHER)		about 4 mm	about 4 points	1.3	10
3CsA-siRNANFKBIZ-m: three CsA coupled to sense strand of siRNA targeting mouse NFKBIZ (SEQ ID NO: 19/20) (sense GCGUCAAUGUACCAGUAUUUUNUNUU; antisense AAUACUGGUACAUUGACGCCU; three CsA on sense strand; modified_base 22 OTHER; n is t base modified with DBCO moiety; modified_base 24 OTHER)		about 2.5 mm	about 2 points	1.5	6
CsA-ASONFKBIZ-m: single cyclosporin A (CsA-N3) click-coupled to 3′-DBCO ASO targeting mouse NFKBIZ gene (SEQ ID NO: 2) (AATACTGGTACATTGACGCC; 3'-DBCO ASO click-conjugated to one cyclosporin A, sugar and linkages not given here, further chemistry not given here)		about 3.2 mm	about 3 points	1.8	5.5
CsA-siRNANFKBIZ-m: one CsA coupled to sense strand of siRNA targeting mouse NFKBIZ (SEQ ID NO: 15/16) (sense rGrCrGrUrCrArArUrGrUrArCrCrArGrUrArUrUdTdT; antisense rArArUrArCrUrGrGrUrArCrArUrUrGrArCrGrCdCdT; cyclosporin A clicked onto the sense 3' DBCO group, further chemistry not fully specified)		about 2.5 mm	about 3 points	2	6
